This is an account of results in US20230158177A1, “HYPOXIA-TARGETING CONTRAST AGENT AND METHODS OF USE THEREOF” (Arizona Board of Regents on behalf of Arizona State …, priority 2021, published 2023).

The test system of one data set is 3T3 fibroblast cells. The data set is described as follows: In vitro hypoxia-targeting study: T1 and T2 MRI of cell pellets. Conditions: for Relaxation time T1 of exposed cell pellets / Relaxation time T2 of exposed cell pellets: 7 T; for contrast agent concentration in cell pellet: from the relaxivity equation for transverse relaxation rate. It is filed as cell-based. As for the experimental part: The in vitro study for hypoxia-targeting efficiency of FOBNI was assessed in a hypoxia chamber glove box capable of adjusting oxygen concentration, temperature and CO2 and equipped with a small centrifuge unit. The 3T3 fibroblast cells were grown in a T-150 flask once they reached the confluency of 80% divided equally to five T-75 flasks to ensure the flasks were identical before being exposed to contrast agents and different conditions. The cells were supplied with Dulbecco's Modified Eagle Medium (DMEM), fetal bovine serum (10%), and penicillin/streptomycin (1%). Once the five flasks reached the confluency of 75-80% the growth media were replaced with the following mediums.
Two flasks were supplied with fresh culture media supplemented with DFOB, two with fresh media and FOBNI and one with just fresh media as control. The control and one FOB and one FOBNI labeled flasks were placed in a regular cell incubator at 21% O2, 5% CO2 and 37° C. and the remaining two flasks were transferred to the hypoxia chamber at 1% O2, 5% CO2 and 37° C. All the samples were kept at defined conditions for 4 h before removing the media. The cells were washed three times with phosphate buffered saline (PBS) at the end of four hour incubation and were detached by being exposed to trypsin for 5 min. The collected cell mixtures in Eppendorf Tube were centrifuged at 1000 rpm for 5 min and the medium was removed. Afterwards, the cell pellets were suspended in PBS and again centrifuged three times to ensure the removal of unbound or free DFOB or FOBNI. Finally, to keep the cell pellets intact the tubes were filled with low temperature liquid agar and placed in the fridge to solidify.
MR Imaging—The samples were imaged using a rat brain surface coil at 7 T. The voxel wise T1 and T2 maps of the samples were calculated using MATLAB based software and the images from Variable Repetition Time Fast Spin Echo (VTR) Sequence and multi-echo spin echo sequence, respectively. The VTR sequence was performed with TE=8 ms and thirteen TR values ranging between (205-5000 ms). The images in multi-echo sequence were acquired with TE ranging between 8-200 ms and TR=5000 ms. The field of view was 2.56 cm×2.56 cm and the matrix size of 64×64 for all the experiments. The ROI analysis to calculate the T1 and T2 values for cell pellets were performed in MATLAB.
Statistics—All results are reported as means±standard deviations (SD). For statistical comparisons unpaired t-test was employed and confidence intervals α=0.05, 95% was used between specific means.

The nature of data set [1]: Relaxometry: relaxivity in a water phantom at 7T. It is filed as physicochemical. Conditions: for longitudinal relaxivity r1 / transverse relaxivity r2: in water; for longitudinal relaxivity r1: slope of linear fit of R1 vs [C]; for transverse relaxivity r2: slope of linear fit of R2 vs [C]. On the procedure:
The basic paramagnetic properties i.e., relaxivity of chelated DFOB (FOB) and FOBNI was measured at 7T using a preclinical Bruker MRI scanner. The relaxivity of the two molecules were studied using a home-made 3D printed phantom capable of controlling temperature. The phantoms contained nine different concentrations of each contrast agents in water from 0-4 mM for FOB and 0-10 mM for FOBNI. The imaging parameters for this study were as matrix size 64×64, the field of view 2.56 cm×2.56 cm and TR=205-5000 ms, […] for the T1 map and TR=5000 ms, TE=8-200 ms for the T2 map. The MR images were later analyzed in a homemade MATLAB code to calculate the T1 and T2 values for each pixel. Using the T1 and T2 values for each concentration and Ri=[C]ri+Ri^0 equation the relaxivity values were calculated by a linear fit on Ri and [C]. Where Ri (i=1 or 2) is the relaxation rate of the tissue, [C] is the concentration of the contrast agent, ri is the relaxivity of the contrast agent and the Ri^0 is the intrinsic relaxation rate of the water. FIG. 7A and FIG. 7B show the T1 and T2 maps for the phantom and a concentration map indicating the concentrations of FOB and FOBNI in each respective well.
FIG. 8 represents the result of the linear fit for R1 and R2 for the two contrast agents. […] Using the linear fit function, the following equations are acquired for relaxation rate vs concentration, R1=(2.06±0.06)[C]+(0.49±0.04) (in red) and R2=(2.75±0.06)[C]+(3.75±0.08) (in gray) for FOB and R1=(0.51±0.1)[C]+(0.44±0.03) (in red) and R2=(4.51±0.14)[C]+(3.87±0.19) (in gray) for FOBNI.

The conditions of data set [2]: cited from earlier work.
The conditions of data set [3]: mouse; cited from earlier work.
The next data set relates to NIH-3T3 fibroblast cells. The data set is described as follows: Cytotoxicity: cell viability assay using Alamar blue. It is filed as cell-based. Conditions: for cell viability (Alamar blue): hypoxic and normoxic conditions. As for the experimental part:
To study the cytotoxicity of DFOB, NIH-3T3 fibroblast cells were used. The cells were exposed to different concentrations of DFOB for 4, 8, and 24 h under either hypoxic or normoxic conditions. Afterwards, the cells were washed with PBS and exposed to 10% Alamar blue in media for 4 h in their respective conditions. To assess the viability of the cells 100 µl of the exposed Alamar blue was collected in a 96-well plate using the spectrophotometer the absorbance was measured at 570 nm and 600 nm excitations and the viability of the cells was calculated.
Cytotoxicity assay for FOBNI was a viability test using Alamar blue. The results are summarized in FIG. 5 for normoxic conditions and FIG. 6 for hypoxic conditions. […] The increased viability, which is a translation of reduced Alamar blue in control samples of 8 h and 24 h can be attributed to the increased number of the cells in the control wells. After seeding the cells the cell number in the control wells could increase and that can influence the amount of reduced compound in absorbance test.
Background: Alamar Blue is a resazurin reagent that responds to reducing activity.

The mark [4] stands for this setting: hypoxic (H), 1% O2, 4 h exposure.
The mark [5] stands for this setting: normoxic (N), 21% O2, 4 h exposure.

“And” between values parts separate entries of the source, which are not always exact repeats. Identical values can stand only once.

As to `CC(=O)N([O-])CCCCCNC(=O)CCC(=O)N([O-])CCCCCNC(=O)CCC(=O)N([O-])CCCCCN.[Fe+3]` [FOB, Feroxamine B, reference compound], in the data set on 3T3 fibroblast cells (setting [4]), the “Relaxation time T1 of exposed cell pellets” value (shortened to “Relaxation time T1”) is 2002 ± 143 ms and the “Relaxation time T2 of exposed cell pellets” value (shortened to “Relaxation time T2”) was determined as 75.5 ± 15.0 ms. For the same compound, in the data set with 3T3 fibroblast cells (hypoxic), the “contrast agent concentration in cell pellet” value (shortened to “contrast agent concentration”) came out at 3.45 mM. In addition, in the data set with 3T3 fibroblast cells (setting [5]), the “Relaxation time T1” value came to 2280 ± 222 ms; the “Relaxation time T2” value was 89.9 ± 11.21 ms and 89.9 ± 11.2 ms. Moreover, the “contrast agent concentration” value in the data set with 3T3 fibroblast cells (normoxic) was 2.67 mM. Besides, in data set [1], the “longitudinal relaxivity r1” value stood at 2.06 ± 0.06 L/s/mmol and the “transverse relaxivity r2” value was 2.75±0.06.

On to `CC(=O)N(O)CCCCCNC(=O)CCC(=O)N(O)CCCCCNC(=O)CCC(=O)N(O)CCCCCN` [DFOB, Deferoxamine B], for which the cell permeability entry in data set [2] is recorded as “very low cell permeability”. Besides, in data set [3], the circulation half-time result is given as “about 5 min”.

Turning to “Feroxamine B conjugate of 2-nitroimidazole [FOBNI]”, in the data set with 3T3 fibroblast cells (setting [4]), the “Relaxation time T1” value came out at 1909 ± 162 ms and the “Relaxation time T2” value was 32.4 ± 3.4 ms. The “increase in pellet concentration, FOBNI vs FOB” value in the data set on 3T3 fibroblast cells (hypoxic condition) is reported as 1.73 fold. Moreover, in the data set with 3T3 fibroblast cells (hypoxic), the “contrast agent concentration” value turned out to be 5.98 mM. For the same compound, in the data set with 3T3 fibroblast cells (setting [5]), the “Relaxation time T1” value was found to be 1793 ± 165 ms and the “Relaxation time T2” value stood at 59.3 ± 9.3 ms. Further, in the data set with 3T3 fibroblast cells (normoxic), the “contrast agent concentration” value worked out at 2.88 mM. Further, the “cellular uptake after addition of nitroimidazole moiety” value with 3T3 fibroblast cells (vs FOB, seen in T2 values under normoxic conditions) is listed as “increased the cellular uptake”. For the same compound, in data set [1], the “decrease in r1 value compared to FOB” value is on record as “about 75%”; the “longitudinal relaxivity r1” value was 0.51 L/s/mmol and 0.51 ± 0.1 L/s/mmol; the “transverse relaxivity r2” value came to 4.51±0.14. Further, the “cell viability (Alamar blue)” value with NIH-3T3 fibroblast cells (100-400 μM, up to 24 h exposure, control of the 4 h exposure used, n=3) was “no significant reduction”. In addition, the “cell viability (Alamar blue)” value with NIH-3T3 fibroblast cells (after 8 h and 24 h of exposure, control of each time point used) is “significant drop in cell viability”. Besides, the “cytocompatibility (cell viability assay)” value with NIH-3T3 fibroblast cells (up to 8 h of direct exposure to the cells) is “cytocompatibility”.
